As a reminder, the IC50 is the point on the concentration scale where inhibition reaches its midpoint. One may read the melting point as the temperature, or range, at which the solid turns liquid. As a reminder, the half-life is how long it takes for the measured level to halve. Low readings indicate rapid decline, high ones slow decline.

From paper PMC6271966, “Synthesis and Biological Activity of Some Bile Acid-Based Camptothecin Analogues” (Molecules, 2014) come the findings set out here.

The test system of series [1] is human colon cancer cell line (HCT-116). The experiment in a line: MTT cytotoxicity assay, HCT-116. The note with it: HCT-116, 72 h, read-out: In Vitro Cytotoxicity (IC50, µM) HCT-116. The series is classed as cell-based. The method, then: (§1) The cytotoxicity of these compounds against three cancer cell lines was assayed using a conventional microtitre plate tetrazolium cytotoxicity assay. The human hepatoma cancer cell line (SMMC-7721), the colon cancer cell line (HCT-116), and the human breast cancer cell line (MCF-7) were provided by The Chinese Academy of Sciences cell bank. These cells were plated at a density of 1 × 10^5 cells/mL and incubated in a 96-well late for 24 h (37 °C, 5% CO2). The cells were then exposed to various concentrations of the compounds (0.0032, 0.016, 0.08, 0.4, 2, 10, and 50 µM/mL) continuously for 72 h. After this incubation, MTT solution (20 μL, 5 mg/mL) was added to each well and incubated for a further 4 h before removing the media. Formazan crystals were then dissolved by the addition of DMSO (100 μL per well). After mixing, the absorbance was read at 540 nm on a microplate reader. These assays were performed in three independent experiments. Wells containing no drugs, or CPT, were used as negative and positive controls, respectively. The IC50 values, defined as the concentration of compounds that produced a 50% decrease in surviving cells, were calculated using the Logit-method.
(Tetrazolium assays rely on reduction of a dye to a coloured formazan, in cell work by metabolically active cells.)

Series [2] has as its system human hepatoma cell line (SMMC-7721). The experiment in a line: MTT cytotoxicity assay, SMMC-7721. The note with it: SMMC-7721, 72 h, read-out: In Vitro Cytotoxicity (IC50, µM) SMMC7721. Type of series: cell-based. The method, then:
as §1

The subject of series [3] is human breast cancer cell line (MCF-7). The experiment in a line: MTT cytotoxicity assay, MCF-7. The series is classed as cell-based. The note with it: MCF7, 72 h, read-out: In Vitro Cytotoxicity (IC50, µM) MCF-7. The method, then:
as §1

Series [4] in a line: Lactone stability in rat blood serum (HPLC). Type of series: in vitro ADME. The note with it: rat, serum. As to the method:
Compounds E2, F2, G2, and H2 were dissolved in DMSO (100 μL, 4 mM/L) and incubated in rat blood serum (4 mL) at 37 °C. Aliquots were taken at different time points (0, 2, 4, 6, 8, 10, 12, and 24 h) and examined by HPLC, using CPT as the reference.

Series [5] has as its system H22 mouse liver tumours. The series can be described thus: In vivo anti-tumour activity, H22 mouse liver tumour model. The note with it: H22 KM mice, i.p. every two days. The method, then: Anti-tumour activity screens of CPT-bile acid analogues were conducted in KM mice with H22 mouse liver tumours. Briefly, female mice weighing 18–22 g were subcutaneously inoculated at the right flank with a tumour cell suspension (1 × 10^6 cells) in 0.2 mL of phosphate-buffered saline. The mice were divided into subgroups 24 h after inoculation. These groups (n = 4) were treated with either vehicle (control), CPT, or the CPT-bile acid analogues. Mice received i.p. treatments once every two days. When the tumour weight of the control group reached 1.0–1.5 g, the mice were killed and the TIR (%) calculated.

Series [6] is described as follows: Body weight and surviving mice in the H22 in vivo study. Further details: species or system mouse. The note with it: for Mice Number End of Study: 4 mice at start. The method, then:
Anti-tumour activity screens of CPT-bile acid analogues were conducted in KM mice with H22 mouse liver tumours. […] These groups (n = 4) were treated with either vehicle (control), CPT, or the CPT-bile acid analogues. Mice received i.p. treatments once every two days.

The compound `CC[C@@]1(OC(=O)CNC(=O)CCC(C)C2CCC3C4C(C[C@H](O)[C@]23C)[C@@]2(C)CC[C@@H](O)CC2C[C@H]4O)C(=O)OCc2c1cc1n(c2=O)Cc2cc3ccccc3nc2-1` (stereo partly drawn) [Compound E1, Camptothecin-20 (S)-O-glycine Ester-[N-(3′α,7′α,12′α-trihydroxy-24′-carbonyl-5′β-cholane)]] had a melting point of 200 to 203 °C. In series [1], the IC50 worked out at 2.9 µM. In addition, the IC50 in series [2] worked out at 2.23 µM. Besides, the IC50 in series [3] is 18.3 µM.

As to `CC[C@@]1(OC(=O)CNC(=O)CCC(C)C2CCC3C4C(CC[C@]23C)[C@@]2(C)CC[C@@H](O)CC2C[C@@H]4O)C(=O)OCc2c1cc1n(c2=O)Cc2cc3ccccc3nc2-1` (stereo partly drawn) [Compound E3, Camptothecin-20 (S)-O-glycine Ester-[N-(3′α,7′β-dihydroxy-24′-carbonyl-5′β-cholane)]], the melting point is 209 to 211 °C. Further, the IC50 in series [1] is 2.4 µM. For the same compound, the IC50 in series [2] was found to be 2.18 µM. The IC50 in series [3] is 61 µM.

`CC[C@@]1(OC(=O)CNC(=O)CCC(C)C2CCC3C4C(CC[C@]23C)[C@@]2(C)CC[C@@H](O)CC2C[C@H]4O)C(=O)OCc2c1cc1n(c2=O)Cc2cc3ccccc3nc2-1` (stereo partly drawn) [Compound E4, Camptothecin-20 (S)-O-glycine Ester-[N-(3′α,7′α-dihydroxy-24′-carbonyl-5′β-cholane)]] returned a melting point of 202 to 203 °C. In series [1], the IC50 was found to be 2.88 µM. The IC50 in series [2] came out at 2.25 µM. The IC50 in series [3] was 20 µM.

`CC[C@@]1(OC(=O)C(CCC(=O)OC)NC(=O)CCC(C)C2CCC3C4C(C[C@H](O)[C@]23C)[C@@]2(C)CC[C@@H](O)CC2C[C@H]4O)C(=O)OCc2c1cc1n(c2=O)Cc2cc3ccccc3nc2-1` (stereo partly drawn) [Compound F1, Camptothecin-20 (S)-O-(D-Glu (OMe)) Ester-[N-(3′α,7′α,12′α-trihydroxy-24′-carbonyl-5′β-cholane)]]: the melting point is 195 to 196 °C. For the same compound, in series [1], the IC50 is 70 µM. Moreover, the IC50 in series [2] is 55.7 µM. Besides, the IC50 in series [3] was found to be 40 µM.

On to `CC[C@@]1(OC(=O)C(CCC(=O)OC)NC(=O)CCC(C)C2CCC3C4CCC5C[C@H](O)CC[C@]5(C)C4C[C@H](O)[C@]23C)C(=O)OCc2c1cc1n(c2=O)Cc2cc3ccccc3nc2-1` (stereo partly drawn) [Compound F2, Camptothecin-20 (S)-O-(D-Glu(OMe))Ester-[N-(3′α,12′α-dihydroxy-24′-carbonyl-5′β-cholane)]], for which the melting point lay within 199 to 200 °C. Besides, in series [1], the IC50 came to 36 µM. In series [2], the IC50 stood at 2.25 µM. Besides, in series [4], the half-life at 97.6 µM is > 24 h. In addition, in series [3], the IC50 came out at 11.8 µM.

In turn, `CC[C@@]1(OC(=O)C(CCC(=O)OC)NC(=O)CCC(C)C2CCC3C4C(CC[C@]23C)[C@@]2(C)CC[C@@H](O)CC2C[C@@H]4O)C(=O)OCc2c1cc1n(c2=O)Cc2cc3ccccc3nc2-1` (stereo partly drawn) [Compound F3, Camptothecin-20 (S)-O-(D-Glu(OMe)) Ester-[N-(3′α,7′β-dihydroxy-24′-carbonyl-5′β-cholane)]] displayed a melting point of 187 to 189 °C. The half-inhibitory concentration (IC50) in series [1] stood at 13 µM. The IC50 in series [2] is 12.2 µM. Moreover, in series [3], the IC50 worked out at 46.3 µM.

For `CC[C@@]1(OC(=O)C(CCC(=O)OC)NC(=O)CCC(C)C2CCC3C4C(CC[C@]23C)[C@@]2(C)CC[C@@H](O)CC2C[C@H]4O)C(=O)OCc2c1cc1n(c2=O)Cc2cc3ccccc3nc2-1` (stereo partly drawn) [Compound F4, Camptothecin-20 (S)-O-(D-Glu(OMe)) Ester-[N-(3′α 7′α-dihydroxy-24′-carbonyl-5′β-cholane)]], the melting point lay within 182 to 185 °C. The IC50 in series [1] turned out to be 20 µM. For the same compound, the IC50 in series [2] was 2.23 µM. In addition, the IC50 in series [3] worked out at 120 µM.

Consider `CC[C@@]1(OC(=O)COC(=O)CCC(C)C2CCC3C4C(C[C@H](O)[C@]23C)[C@@]2(C)CC[C@@H](O)CC2C[C@H]4O)C(=O)OCc2c1cc1n(c2=O)Cc2cc3ccccc3nc2-1` (stereo partly drawn) [Compound G1, Camptothecin-20 (S)-O-acetate-[N-(3′α,7′α,12′α-trihydroxy-24′-carbonyl-5′β-cholane)]], for which the melting point fell in the range of 230 to 233 °C. The IC50 in series [1] was 4 µM. Further, in series [2], the IC50 amounted to 0.71 µM. Besides, the IC50 in series [3] is 10.9 µM.

The compound `CC[C@@]1(OC(=O)COC(=O)CCC(C)C2CCC3C4CCC5C[C@H](O)CC[C@]5(C)C4C[C@H](O)[C@]23C)C(=O)OCc2c1cc1n(c2=O)Cc2cc3ccccc3nc2-1` (stereo partly drawn) [Compound G2, Camptothecin-20 (S)-O-acetate-[N-(3′α,12′α-dihydroxy-24′-carbonyl-5′β-cholane)]] returned a melting point of 221 to 224 °C. Further, the IC50 in series [1] is 2.05 µM. For the same compound, the IC50 in series [2] stood at 1.24 µM. In series [4], the half-life at 97.6 µM was > 24 h. Moreover, the IC50 in series [3] turned out to be 4 µM.

`CC[C@@]1(OC(=O)COC(=O)CCC(C)C2CCC3C4C(CC[C@]23C)[C@@]2(C)CC[C@@H](O)CC2C[C@@H]4O)C(=O)OCc2c1cc1n(c2=O)Cc2cc3ccccc3nc2-1` (stereo partly drawn) [Compound G3, Camptothecin-20 (S)-O-acetate-[N-(3′α,7′β-dihydroxy-24′-carbonyl-5′β-cholane)]] had a melting point of 229 to 230 °C. For the same compound, in series [1], the IC50 was determined as 12.1 µM. Further, the IC50 in series [2] amounted to 6.84 µM. Further, in series [3], the IC50 came to 62 µM.

`CC[C@@]1(OC(=O)COC(=O)CCC(C)C2CCC3C4C(CC[C@]23C)[C@@]2(C)CC[C@@H](O)CC2C[C@H]4O)C(=O)OCc2c1cc1n(c2=O)Cc2cc3ccccc3nc2-1` (stereo partly drawn) [Compound G4, Camptothecin-20 (S)-O-acetate-[N-(3′α,7′α-dihydroxy-24′-carbonyl-5′β-cholane)]] yielded a melting point of 228 to 229 °C. Besides, in series [1], the IC50 came to 36 µM. Moreover, the “TIR (%)” value in series [5] (dose 19.21 × 3 µmol/kg) is on record as 35.45%. Also, the “TIR (%)” value in series [5] (dose 38.42 × 3 µmol/kg) came to 64.55%. Besides, in series [5] (dose 57.63 × 3 µmol/kg), the “TIR (%)” value is 71.12%. The IC50 in series [2] was 0.14 µM. In series [6] (dose 19.21 × 3 µmol/kg i.p.), the “Mice Number End of Study” value turned out to be 4. The “Body Weight (g) End of Study” value in series [6] (dose 19.21 × 3 µmol/kg i.p., start of study 19.1 g) turned out to be 19.4 g. In addition, the “Mice Number End of Study” value in series [6] (dose 38.42 × 3 µmol/kg i.p.) turned out to be 4. For the same compound, in series [6] (dose 38.42 × 3 µmol/kg i.p., start of study 21.0 g), the “Body Weight (g) End of Study” value is reported as 21.6 g. Besides, the “Mice Number End of Study” value in series [6] (dose 57.63 × 3 µmol/kg i.p.) is 4. In addition, in series [6] (dose 57.63 × 3 µmol/kg i.p., start of study 19.8 g), the “Body Weight (g) End of Study” value came out at 22.1 g. Further, the IC50 in series [3] amounted to 70 µM.

Turning to `CC[C@@]1(O)C(=O)OCc2c1cc1n(c2=O)Cc2cc3cc(OCCCOC(=O)CCC(C)C4CCC5C6C(C[C@H](O)C45)C4CC[C@@H](O)CC4C[C@H]6O)ccc3nc2-1` (stereo partly drawn) [Compound H1, 10-O-(3-O-(3′α,7′α,12′α-Trihydroxy-24′-carbonyl-5′β-cholan)-propyl)-20(S)-camptothecin], the IC50 in series [1] was determined as 7.4 µM; in series [2], 3.2 µM; in series [3], 3 µM.

As to `CC[C@@]1(O)C(=O)OCc2c1cc1n(c2=O)Cc2cc3cc(OCCCOC(=O)CCC(C)C4CCC5C4CCC4C6CC[C@@H](O)CC6C[C@H](O)C45)ccc3nc2-1` (stereo partly drawn) [Compound H3, 10-O-(3-O-(3′α,7′β-Dihydroxy-24′-carbonyl-5′β-cholan)-propyl)-20(S)-camptothecin], the IC50 in series [1] came to 0.8 µM; in series [2], 3.34 µM; in series [3] it was 2.8 µM.

With `CC[C@@]1(O)C(=O)OCc2c1cc1n(c2=O)Cc2cc3cc(OCCCOC(=O)CCC(C)C4CCC5C4CCC4C6CC[C@@H](O)CC6C[C@@H](O)C45)ccc3nc2-1` (stereo partly drawn) [Compound H4, 10-O-(3-O-(3′α,7′α-Dihydroxy-24′-carbonyl-5′β-cholan)-propyl)-20(S)-camptothecin], the figures for the IC50 in series [1], in series [2] and in series [3] were 1.4 µM, 2.18 µM and 30 µM, respectively.
